Here are results for ten molecules from ChEMBL document CHEMBL1201862, “PubChem BioAssay data set” (2004).

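Five concentrations, 48 hours, 96-well plates. Abbreviation: GI50, concentration required for 50% inhibition of growth.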 The source made the active and inactive calls. Rule as the data show it: active = GI50 up to about 1.1 µM and inactive = higher. Some results are limits rather than exact numbers.

Some test systems named below: SNB-75; HOP-62; OVCAR-5; UACC-62; M14; 786-0; SK-MEL-28; SNB-19; OVCAR-3; CCRF-CEM; SF-268; SR; HOP-92; TK-10; SK-OV-3; HCC 2998; OVCAR-8; K562; SF-539; RXF 393.
What all share (assay): NCI anticancer screen, dose series, 48 h

With `COc1cc(/C=C/C(=O)N[C@@H]2C(=O)N3[C@@H]2SC(C)(C)[C@@H]3C(=O)O)ccc1O`, the GI50 in the assay on SNB-75, in the assay with HOP-62, in the assay on OVCAR-5, in the assay with UACC-62, in the assay with M14 and in the assay with 786-0 was > 100 µM (inactive) in each case. The GI50 in the assay on SK-MEL-28, in the assay with SNB-19, in the assay with OVCAR-3, in the assay with CCRF-CEM, with SF-268 and in the assay with SR was > 100 µM (inactive) in each case. For the same molecule, the GI50 with HOP-92, in the assay with TK-10, in the assay on SK-OV-3, in the assay with HCC 2998, in the assay on OVCAR-8 and in the assay on K562 was > 100 µM (inactive) throughout. The GI50 in the assay with SF-539 and in the assay with RXF 393 was > 100 µM (inactive) throughout.

In the case of `O=C1C=CC(=O)c2ccc(=O)ccc21`, the GI50 with SNB-75 was 19.9 µM (inactive); in the assay on HOP-62 it was 25.9 µM (inactive); in the assay with OVCAR-5 it was 19.9 µM (inactive); with UACC-62, 13.7 µM (inactive); in the assay with M14, 14.8 µM (inactive); in the assay on 786-0 it was 17.5 µM (inactive). Further, the GI50 was 21.4 µM (inactive) with SK-MEL-28; 16.9 µM (inactive) in the assay with SNB-19; 7.85 µM (inactive) in the assay on OVCAR-3; 0.802 µM (active) in the assay with CCRF-CEM; 17.1 µM (inactive) with SF-268; 2.02 µM (inactive) with SR. Further, the GI50 with HOP-92 was 1.89 µM (inactive); in the assay on TK-10, 17.6 µM (inactive); with SK-OV-3 it was 24.1 µM (inactive); in the assay with HCC 2998, 17.2 µM (inactive); in the assay on OVCAR-8, 17.5 µM (inactive); in the assay with K562 it was 2.4 µM (inactive). The GI50 in the assay with SF-539 was 21.8 µM (inactive); with RXF 393, 6.31 µM (inactive).

For `Cc1ccc(S(=O)(=O)OCC/C(=C\[Si](C)(C)C)c2ccccc2)cc1`, the GI50 with SNB-75, in the assay with HOP-62, with OVCAR-5, in the assay on UACC-62, in the assay on M14 and in the assay with 786-0 was > 100 µM (inactive) each time. Besides, the GI50 in the assay on SK-MEL-28 was > 100 µM (inactive); in the assay with SNB-19 it was > 100 µM (inactive); in the assay on OVCAR-3, > 100 µM (inactive); in the assay with CCRF-CEM, > 100 µM (inactive); in the assay on SF-268, > 100 µM (inactive); in the assay with SR it was 24 µM (inactive). Also, the GI50 with HOP-92, with TK-10, in the assay on SK-OV-3, in the assay with HCC 2998, in the assay on OVCAR-8 and in the assay with K562 was > 100 µM (inactive) each time. The GI50 with SF-539 and with RXF 393 was > 100 µM (inactive) throughout.

Turning to `N#CC(=C1CCN(CCCC(=O)c2ccc(F)cc2)CC1)c1ccccc1`, the GI50 with SNB-75, in the assay with OVCAR-5, with UACC-62, in the assay on 786-0, in the assay on SK-MEL-28 and in the assay with SNB-19 was > 100 µM (inactive) each time. For the same molecule, the GI50 with CCRF-CEM, with SF-268, in the assay with SR, in the assay with HOP-92, with TK-10 and in the assay on SK-OV-3 was > 100 µM (inactive) each time. Further, the GI50 in the assay with HCC 2998, in the assay with OVCAR-8, in the assay with K562, in the assay with SF-539 and in the assay on RXF 393 was > 100 µM (inactive) throughout.

On to `CCOC(=O)/C(C(N)=O)=C(/O)c1cnccn1`, for which the GI50 with SNB-75, in the assay with OVCAR-5, in the assay with UACC-62, with M14, in the assay with 786-0 and in the assay with SK-MEL-28 was > 100 µM (inactive) each time. In addition, the GI50 in the assay on SNB-19, in the assay with OVCAR-3, in the assay with CCRF-CEM, in the assay with SF-268, in the assay with SR and with HOP-92 was > 100 µM (inactive) in each case. The GI50 with SK-OV-3, in the assay with HCC 2998, with OVCAR-8, with K562, in the assay on SF-539 and with RXF 393 was > 100 µM (inactive) each time.

Take `Clc1cccc(N2CCN(CCN3CCc4c([nH]c5ccccc45)C3c3cccnc3)CC2)c1` (centres undefined): the GI50 is 18.8 µM (inactive) in the assay with SNB-75; > 45.6 µM (inactive) in the assay with HOP-62; > 57.3 µM (inactive) in the assay with OVCAR-5; > 70 µM (inactive) in the assay with UACC-62; > 79.4 µM (inactive) in the assay with M14; 29.8 µM (inactive) with 786-0. The GI50 in the assay with SK-MEL-28 is > 100 µM (inactive); in the assay on SNB-19, > 100 µM (inactive); with OVCAR-3 it was 58.5 µM (inactive); in the assay on CCRF-CEM it was > 40.4 µM (inactive); in the assay on SF-268, > 100 µM (inactive); with SR, 25.7 µM (inactive). The GI50 was > 52.5 µM (inactive) with HOP-92; > 100 µM (inactive) in the assay with TK-10; > 100 µM (inactive) with SK-OV-3; 22.5 µM (inactive) with HCC 2998; > 61.9 µM (inactive) in the assay with OVCAR-8; 10.9 µM (inactive) with K562. Moreover, the figures for the GI50 in the assay with SF-539 and with RXF 393 were 33.5 µM (inactive) and > 100 µM (inactive), respectively.

Regarding `O=C(c1ccccc1)N1C(=O)N(c2ccccc2)C(=N/c2ccccc2)/C1=N\c1ccccc1`, the GI50 in the assay on SNB-75 was > 100 µM (inactive); in the assay with HOP-62 it was 52.4 µM (inactive); in the assay on OVCAR-5, 99.1 µM (inactive); with UACC-62, 4.18 µM (inactive); in the assay with 786-0, > 100 µM (inactive); in the assay with SK-MEL-28, > 100 µM (inactive). The GI50 with SNB-19 was > 100 µM (inactive); with CCRF-CEM, 50.7 µM (inactive); with SF-268 it was > 100 µM (inactive); with SR, 17.8 µM (inactive); with HOP-92 it was 64.1 µM (inactive); in the assay with TK-10 it was > 100 µM (inactive). For the same molecule, the GI50 in the assay with SK-OV-3 is > 100 µM (inactive); in the assay on HCC 2998 it was 28.8 µM (inactive); with OVCAR-8, > 100 µM (inactive); with K562 it was 7.36 µM (inactive); with SF-539 it was > 100 µM (inactive); in the assay with RXF 393 it was 99.3 µM (inactive).

In the case of `CCOc1ccccc1/N=N/C1C(=O)N(C(=O)CC(=O)Nc2ccccc2OC)N=C1C` (centres undefined), the GI50 is 16.3 µM (inactive) in the assay with SNB-75; 18.7 µM (inactive) with HOP-62; > 100 µM (inactive) with OVCAR-5; 25.7 µM (inactive) with UACC-62; > 100 µM (inactive) with M14; 56.2 µM (inactive) with 786-0. Also, the GI50 in the assay with SK-MEL-28 is > 100 µM (inactive); in the assay on OVCAR-3, > 100 µM (inactive); in the assay with CCRF-CEM it was > 100 µM (inactive); in the assay on SF-268, 22.4 µM (inactive); in the assay with SR, > 10 µM (inactive); in the assay on HOP-92 it was 20.3 µM (inactive). Moreover, the GI50 was > 100 µM (inactive) with TK-10; 27.5 µM (inactive) in the assay on SK-OV-3; > 100 µM (inactive) in the assay with HCC 2998; 37.5 µM (inactive) in the assay on OVCAR-8; 53.2 µM (inactive) in the assay on SF-539; 24.2 µM (inactive) with RXF 393.

`O=C(CC(=O)N(C(=O)c1ccccc1)c1ccc(Cl)cc1)N/N=C\c1ccccc1O`: the GI50 in the assay on SNB-75 is 22.9 µM (inactive); in the assay with HOP-62, 31.8 µM (inactive); in the assay on OVCAR-5, 36.6 µM (inactive); in the assay with M14, > 100 µM (inactive); with 786-0, 40 µM (inactive); with SK-MEL-28, > 100 µM (inactive). In addition, the GI50 in the assay on SNB-19 is 30.3 µM (inactive); with OVCAR-3 it was > 100 µM (inactive); in the assay on CCRF-CEM, 2.86 µM (inactive); in the assay on SF-268, 24.8 µM (inactive); in the assay with SR it was 29.4 µM (inactive); in the assay on HOP-92, 24.6 µM (inactive). Besides, the GI50 with TK-10 is 32.3 µM (inactive); in the assay on SK-OV-3 it was 17.2 µM (inactive); with HCC 2998, 33.6 µM (inactive); in the assay on OVCAR-8 it was 35.2 µM (inactive); in the assay on K562, > 100 µM (inactive); in the assay on SF-539 it was 36.1 µM (inactive). Also, the GI50 in the assay with RXF 393 is 36.8 µM (inactive).

With `COc1ccc2c(c1)[C@@H]1c3cc(OC)c(OC)cc3CCN1CCC2`, the GI50 in the assay with SNB-75, with HOP-62, with OVCAR-5, in the assay on UACC-62, with M14 and with 786-0 was > 100 µM (inactive) in each case. Also, the GI50 is > 100 µM (inactive) in the assay on SK-MEL-28; > 100 µM (inactive) with SNB-19; > 100 µM (inactive) in the assay with OVCAR-3; 87.7 µM (inactive) in the assay with CCRF-CEM; > 100 µM (inactive) in the assay with SF-268; 76 µM (inactive) in the assay on SR. Also, the GI50 with HOP-92 is 9.18 µM (inactive); with TK-10, > 100 µM (inactive); in the assay on HCC 2998, > 100 µM (inactive); in the assay with OVCAR-8 it was > 100 µM (inactive); in the assay with K562, 65.3 µM (inactive); with SF-539, > 100 µM (inactive). Moreover, the GI50 in the assay on RXF 393 is > 100 µM (inactive).
